Columns and labels:
[1] = system: wheat (Triticum aestivum); assay: Postemergence herbicidal activity in cereal crops; type: in vivo; conditions: crop, post-emergent, after 20-22 days
Description: (§1) When required to ensure good germination and healthy plants, a fungicide treatment and/or other chemical or physical treatment was applied. The plants were grown for 7-36 days in a greenhouse with an approximate 14 hour photoperiod which was maintained at about 18° C. during the day and 17° C. during the night. Nutrients and water were added on a regular basis and supplemental lighting was provided with overhead metal halide 1000-Watt lamps as necessary. The plants were employed for testing when they reached the second or third true leaf stage. […] The concentrated stock solutions obtained were diluted with 16 mL of an aqueous mixture containing acetone, water, isopropyl alcohol, DMSO, Agri-dex crop oil concentrate, and Triton® X-77 surfactant in a 64.7:26.0:6.7:2.0:0.7:0.01 v/v ratio to obtain spray solutions containing the highest application rates. […] Compound requirements are based upon a 12 mL application volume at a rate of 187 L/ha. Formulated compounds were applied to the plant material with an overhead Mandel track sprayer equipped with a […] nozzles calibrated to deliver 187 L/ha over an application area of 0.503 square meters at a spray height of 18 inches (43 cm) above average plant canopy height. Control plants were sprayed in the same manner with the blank. The treated plants and control plants were placed in a greenhouse as described above and watered by sub-irrigation to prevent wash-off of the test compounds.

Papaver rhoeas = assay: Postemergence herbicidal activity in cereal crops; type: in vivo; conditions: post-emergent, after 20-22 days
Description: as §1

Veronica persica = assay: Postemergence herbicidal activity in cereal crops; type: in vivo; conditions: post-emergent, after 20-22 days
Description: as §1

Galium aparine = assay: Postemergence herbicidal activity in cereal crops; type: in vivo; conditions: post-emergent, after 20-22 days
Description: as §1

Lamium purpureum = assay: Postemergence herbicidal activity in cereal crops; type: in vivo; conditions: post-emergent, after 20-22 days
Description: as §1

barley (Hordeum vulare) = assay: Postemergence herbicidal activity in cereal crops; type: in vivo; conditions: crop, post-emergent, after 20-22 days
Description: as §1

[2] = system: redroot pigweed (Amaranthus retroflexus); assay: Postemergence herbicidal activity; type: in vivo; conditions: post-emergent, 140 g ai/ha, after 14 days; for pest or weed control at 140 g/ha: Amaranthus retroflexus, post-emergence, 336 h, read-out: % Control AMARE
Outline: (§2)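 Plants grown 7-21 days in greenhouse (about 15 h photoperiod, 23-29° C day, 22-28° C night) to first or second true leaf stage. Compounds in acetone/water/isopropanol/DMSO carrier with crop oil concentrate and Triton X-155 sprayed overhead at 187 L/ha; controls received solvent blank. Plants sub-irrigated afterwards; dose responses analysed by probit analysis.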

[3] = system: velvetleaf (Abutilon theophrasti); assay: Postemergence herbicidal activity; type: in vivo; conditions: post-emergent, 140 g ai/ha, after 14 days; for pest or weed control at 140 g/ha: Abutilon theophrasti, post-emergence, 336 h, read-out: % Control ABUTH
Outline: as §2

[4] = system: lambsquarter (Chenopodium album); assay: Postemergence herbicidal activity; type: in vivo; conditions: post-emergent, 140 g ai/ha, after 14 days; for pest or weed control at 140 g/ha: Chenopodium album, post-emergence, 336 h, read-out: % Control CHEAL
Outline: as §2

[5] = system: redroot pigweed (Amaranthus retroflexus); assay: Preemergence herbicidal activity; type: in vivo; conditions: Amaranthus retroflexus, pre-emergence, 480 h; pre-emergent, 140 g ai/ha, after 20-22 days; read-out: % Control AMARE
Description: (§3) Seeds of the desired test plant species were planted in a soil matrix prepared by mixing a loam soil (43 percent silt, 19 percent clay, and 38 percent sand, with a pH of about 8.1 and an organic matter content of about 1.5 percent) and sand in a 70 to 30 ratio. The soil matrix was contained in plastic pots with a surface area of 113 square centimeters. When required to ensure good germination and healthy plants, a fungicide treatment and/or other chemical or physical treatment was applied. […] Compound requirements are based upon a 12 mL application volume at a rate of 187 L/ha. Formulated compounds were applied to the plant material with an overhead Mandel track sprayer equipped with a […] nozzles calibrated to deliver 187 L/ha over an application area of 0.503 square meters at a spray height of 18 inches (43 cm) above the soil surface. Control plants were sprayed in the same manner with the solvent blank. The treated pots and control pots were placed in a greenhouse maintained with an approximate 15 hour photoperiod and temperatures of about 23-29° C. during the day and 22-28° C. during the night. Nutrients and water were added on a regular basis and supplemental lighting was provided with overhead metal halide 1000-watt lamps as necessary. The water was added by top-irrigation.

[6] = system: velvetleaf (Abutilon theophrasti); assay: Preemergence herbicidal activity; type: in vivo; conditions: Abutilon theophrasti, pre-emergence, 480 h; pre-emergent, 140 g ai/ha, after 20-22 days; read-out: % Control ABUTH
Description: as §3

[7] = system: lambsquarter (Chenopodium album); assay: Preemergence herbicidal activity; type: in vivo; conditions: Chenopodium album, pre-emergence, 480 h; pre-emergent, 140 g ai/ha, after 20-22 days; read-out: % Control CHEAL
Description: as §3

Structure (SMILES) | melting point | pest or weed control at 140 g/ha [5] | pest or weed control at 140 g/ha [6] | pest or weed control at 140 g/ha [7] | pest or weed control at 140 g/ha [2] | pest or weed control at 140 g/ha [3] | pest or weed control at 140 g/ha [4] | also measured
COC(=O)c1nc(-c2ccc(C)c(OC)c2F)cc(N)c1Cl [Compound 36, 4-amino-3-chloro-6-(2-fluoro-3-methoxy-4-methylphenyl) pyridine-2-carboxylic acid, methyl ester] |  |  |  |  |  |  |  | % Control TRZAS ([1]; 70 g ai/ha): 5%; % Control PAPRH (Papaver rhoeas; 70 g ai/ha): 99%; % Control VERPE (Veronica persica; 70 g ai/ha): 50%; % Control GALAP (Galium aparine; 70 g ai/ha): 95%; % Control LAMPU (Lamium purpureum; 70 g ai/ha): 99%; % Control HORVS (barley (Hordeum vulare); 70 g ai/ha): 0%; % Control AMARE [2]: 100%; % Control ABUTH [3]: 100%; % Control CHEAL [4]: 100%
COCc1c(Cl)ccc(-c2cc(N)c(Cl)c(C(=O)O)n2)c1F [Compound 105, 4-Amino-3-chloro-6-(4-chloro-2-fluoro-3-methoxymethylphenyl)pyridine-2-carboxylic acid] | 187 to 188 °C (dec.) | 100% | 100% | 95% | 98% | 95% | 85% | 
CCN(CC)c1c(Cl)ccc(-c2cc(N)c(Cl)c(C(=O)O)n2)c1F [Compound 116, 4-Amino-3-chloro-6-[4-chloro-3-(diethylamino)-2-fluorophenyl]pyridine-2-carboxylic acid] | 174 to 175 °C | 100% | 100% | 75% | 90% | 80% | 100% | 
COc1c(Br)ccc(-c2cc(N)c(Cl)c(C(=O)O)n2)c1Cl [Compound 121, 4-Amino-6-(4-bromo-2-chloro-3-methoxyphenyl)-3-chloropyridine-2-carboxylic acid] | 192 to 193 °C | 100% | 100% | 100% | 95% | 100% | 90% | 
COc1c(Cl)cc(F)c(-c2cc(N)c(Cl)c(C(=O)O)n2)c1F [Compound 133, 4-Amino-3-chloro-6-(4-chloro-2,6-difluoro-3-methoxyphenyl)pyridine-2-carboxylic acid] |  |  |  |  |  |  |  | plant injury at 17.5 g/ha ([1]; Triticum aestivum, post-emergence, 480 h, 17.5 g ai/ha, read-out: % Control TRZAS): 0%; pest or weed control at 17.5 g/ha (Papaver rhoeas; Papaver rhoeas, post-emergence, 480 h, 17.5 g ai/ha, read-out: % Control PAPRH): 100%; pest or weed control at 17.5 g/ha (Veronica persica; Veronica persica, post-emergence, 480 h, 17.5 g ai/ha, read-out: % Control VERPE): 70%; pest or weed control at 17.5 g/ha (Galium aparine; Galium aparine, post-emergence, 480 h, 17.5 g ai/ha, read-out: % Control GALAP): 100%; pest or weed control at 17.5 g/ha (Lamium purpureum; Lamium purpureum, post-emergence, 480 h, 17.5 g ai/ha, read-out: % Control LAMPU): 99%; pest or weed control at 17.5 g/ha (barley (Hordeum vulare); Hordeum, post-emergence, 480 h, 17.5 g ai/ha, read-out: % Control HORVS): 0%

The next lines start with results.

melting point | Structure (SMILES) | pest or weed control at 140 g/ha [5] | pest or weed control at 140 g/ha [6] | pest or weed control at 140 g/ha [7] | pest or weed control at 140 g/ha [2] | pest or weed control at 140 g/ha [3] | pest or weed control at 140 g/ha [4] | also measured
171 to 172 °C | CN(C)c1c(Cl)cc(F)c(-c2cc(N)c(Cl)c(C(=O)O)n2)c1F [Compound 94, 4-Amino-3-chloro-6-(4-chloro-2,6-difluoro-3-dimethylaminophenyl)pyridine-2-carboxylic acid] | 100% | 100% | 100% | 100% | 100% | 100% | 
179 to 181 °C (dec.) | Cc1c(Cl)ccc(-c2cc(N)c(Cl)c(C(=O)O)n2)c1F [Compound 99, 4-Amino-3-chloro-6-(4-chloro-2-fluoro-3-methylphenyl)pyridine-2-carboxylic acid] | 100% | 100% | 95% | 90% | 80% | 90% | 
177 to 178 °C (dec.) | CCOc1c(Cl)ccc(-c2cc(N)c(Cl)c(C(=O)O)n2)c1F [Compound 102, 4-Amino-3-chloro-6-(4-chloro-2-fluoro-3-ethoxyphenyl)pyridine-2-carboxylic acid] | 95% | 85% | 0% | 85% | 80% | 95% | 
202 to 203 °C (dec.) | Nc1cc(-c2ccc3c(c2F)OCO3)nc(C(=O)O)c1Cl [Compound 108, 4-Amino-3-chloro-6-(2-fluoro-3,4-methylenedioxyphenyl)pyridine-2-carboxylic acid] | 100% | 90% | 90% | 100% | 100% | 95% | 
187 to 188 °C (dec.) | COc1c(Cl)ccc(-c2cc(N)c(Cl)c(C(=O)O)n2)c1Cl [Compound 110, 4-Amino-3-chloro-6-(2,4-dichloro-3-methoxyphenyl)pyridine-2-carboxylic acid] | 40% | 100% | 40% | 90% | 80% | 85% | 
179 to 180 °C | Nc1c(F)c(-c2ccc3c(c2F)OCO3)nc(C(=O)O)c1Cl [Compound 115, 4-Amino-3-chloro-5-fluoro-6-(2-fluoro-3,4-methylenedioxyphenyl)pyridine-2-carboxylic acid] | 100% | 100% | 100% | 100% | 100% | 100% | 
